From ChEMBL document CHEMBL3272218, “Biologically active derivatives of angiotensin for labeling cellular receptors” (J Med Chem, 1978)
Peptide text beside a SMILES is read from it. * marks the point of attachment. X2 = O=C(O)c1cc(NC(=S)*)ccc1-c1c2ccc(=O)cc-2oc2cc(O)ccc12; X1 = O=Cc1ccc(C(=O)*)cc1

Molecular target: T1, Type-1 angiotensin II receptor (Oryctolagus cuniculus) (UniProt P34976)
T1 sequence (whole entry): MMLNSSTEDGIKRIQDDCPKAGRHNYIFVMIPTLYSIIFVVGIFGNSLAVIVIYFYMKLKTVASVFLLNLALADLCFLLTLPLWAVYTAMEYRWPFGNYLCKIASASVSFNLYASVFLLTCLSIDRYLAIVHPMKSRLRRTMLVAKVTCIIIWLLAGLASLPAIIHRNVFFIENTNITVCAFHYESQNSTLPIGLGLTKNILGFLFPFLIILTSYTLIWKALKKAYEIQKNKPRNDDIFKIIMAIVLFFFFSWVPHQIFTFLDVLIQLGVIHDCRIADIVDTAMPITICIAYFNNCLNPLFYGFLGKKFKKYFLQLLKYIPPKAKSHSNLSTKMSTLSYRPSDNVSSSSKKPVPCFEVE
Assay: Relative binding affinity of the compound assessed as ratio of [Asp1,Ile5]angiotensin II ED50 to compound ED50 for angiotensin 2 receptor in rabbit aortic strips

Row | relative binding affinity (RBA) | SMILES
1 | 0.5 | CCCC[C@H](NC(=O)c1cc(N=[N+]=[N-])ccc1[N+](=O)[O-])C(=O)N[C@@H](CC(=O)O)C(=O)N[C@@H](CCCNC(=N)N)C(=O)N[C@H](C(=O)N[C@@H](Cc1ccc(O)cc1)C(=O)N[C@H](C(=O)N[C@@H](Cc1cnc[nH]1)C(=O)N1CCC[C@H]1C(=O)N[C@@H](Cc1ccccc1)C(=O)O)[C@@H](C)CC)C(C)C
2 | 8 | CC(C)[C@H](NC(=O)[C@H](CCCNC(=N)N)NC(=O)[C@H](CC(N)=O)NC(=O)c1ccc(C=O)cc1)C(=O)N[C@@H](Cc1ccc(O)cc1)C(=O)N[C@H](C(=O)N[C@@H](Cc1cnc[nH]1)C(=O)N1CCC[C@H]1C(=O)N[C@@H](Cc1ccccc1)C(=O)O)C(C)C (X1-NRVYVHPF-OH)
3 | 0.03 | CC[C@H](C)[C@H](NC(=O)[C@H](Cc1ccc(O)cc1)NC(=O)[C@@H](N)C(C)C)C(=O)N[C@@H](Cc1cnc[nH]1)C(=O)N1CCC[C@H]1C(=O)N[C@@H](Cc1ccccc1)C(=O)O
4 | 2 | CC[C@H](C)[C@H](NC(=O)[C@H](Cc1ccc(O)cc1)NC(=O)[C@@H](NC(=O)[C@@H](N)CCCN=C(N)N)C(C)C)C(=O)N[C@@H](Cc1c[nH]cn1)C(=O)N1CCC[C@H]1C(=O)N[C@@H](Cc1ccccc1)C(=O)O
5 | 3 | CC[C@H](C)[C@H](NC(=O)[C@H](Cc1ccc(O)cc1)NC(=O)[C@@H](NC(=O)[C@H](CCCNC(=N)N)NC(=O)[C@H](CC(=O)O)N1C=C(c2ccccc2)C(=O)C1(O)c1ccccc1)C(C)C)C(=O)N[C@@H](Cc1cnc[nH]1)C(=O)N1CCC[C@H]1C(=O)N[C@@H](Cc1ccccc1)C(=O)O (some centres not stated)
6 | 23 | CC(C)[C@H](NC(=O)[C@H](CCCNC(=N)N)NC(=O)[C@@H](N)CC(N)=O)C(=O)N[C@@H](Cc1ccc(O)cc1)C(=O)N[C@H](C(=O)N[C@@H](Cc1c[nH]cn1)C(=O)N1CCC[C@H]1C(=O)N[C@@H](Cc1ccccc1)C(=O)O)C(C)C (H-NRVYVHPF-OH)
7 | 1 | CC(C)[C@H](NC(=O)[C@H](CCCNC(=N)N)NC(=O)[C@H](CC(N)=O)NC(=S)Nc1ccc(-c2c3ccc(=O)cc-3oc3cc(O)ccc23)c(C(=O)O)c1)C(=O)N[C@@H](Cc1ccc(O)cc1)C(=O)N[C@H](C(=O)N[C@@H](Cc1cnc[nH]1)C(=O)N1CCC[C@H]1C(=O)N[C@@H](Cc1ccccc1)C(=O)O)C(C)C (X2-NRVYVHPF-OH)
